Assays:
[1] = biological target: T1, cloned human δ opioid receptor (Homo sapiens, UniProt P41143); assay: In vitro binding assay, inhibition of [3H]diprenorphine binding to cloned human δ opioid receptor
T1 construct: expressed in transfected cells
Experimental: IC50 values were obtained by nonlinear analysis of the data using GraphPad Prism version 3.00 for Windows (GraphPad Software, San Diego). Ki values were obtained by Cheng-Prusoff corrections of IC50 values.
After incubation at room temperature for one hour, the samples were filtered through GF/B filters that had been presoaked in a solution of 0.5% (w/v) polyethylenimine and 0.1% (w/v) bovine serum albumin in water. The filters were rinsed 4 times with 1 mL of cold 50 mM Tris HCl, pH 7.8 and radioactivity remaining on the filters determined by scintillation spectroscopy. Nonspecific binding was determined by the minimum values of the titration curves and was confirmed by separate assay wells containing 10 μM naloxone.
To determine the equilibrium dissociation constant for the inhibitors (Ki), radioligand bound (cpm) in the presence of various concentrations of test compounds was measured. The concentration to give half-maximal inhibition (EC50) of radioligand binding was determined from a best nonlinear regression fit to the following equation,
The nonlinear regression fit was performed using the program Prism® (GraphPad Software, San Diego, Calif.). The Ki values were then determined from the EC50 values by the following equation, […]

[2] = system: formalin-induced flinching in rats; assay: In vivo formalin-induced nociception assay; parameters: species or system rat; settings: dose of 300 μg, i.paw
Excerpt: Administration of formalin into the paw results in a localized inflammation and a pain response that is moderate in intensity and continuous in duration. Unlike many other assays of nociception, the formalin assay measures tonic pain that is a result of tissue injury, and therefore is a model which is more relevant to clinical pain states in humans (see Tjolsen et al., Pain 51: 5–17, 1992). In the rat the response to formalin-induced pain consists of spontaneous flinching behavior, characterized by paw lifting and paw shaking, and a rapid vibration of the paw after drawing it under the body. […] The early or acute phase lasts from 0–5 minutes post-formalin and is followed by a quiescent period lasting approximately 15 minutes. The tonic phase occurs from 20–35 minutes following formalin injection and is the interval where the number of flinching responses is maximal. […]
Inflammation is induced by subcutaneous injection of […] of a 5% formalin solution into the dorsal surface of the right hind paw of male Sprague-Dawley rats weighing 70–90 g. Injections of drug are given into the dorsal surface of the paw prior to formalin injection, and flinching behavior is quantitated by counting the number of responses that occur during the tonic phase of pain, lasting from 20–35 min after formalin injection. […]

T1 sequence (P41143 whole entry): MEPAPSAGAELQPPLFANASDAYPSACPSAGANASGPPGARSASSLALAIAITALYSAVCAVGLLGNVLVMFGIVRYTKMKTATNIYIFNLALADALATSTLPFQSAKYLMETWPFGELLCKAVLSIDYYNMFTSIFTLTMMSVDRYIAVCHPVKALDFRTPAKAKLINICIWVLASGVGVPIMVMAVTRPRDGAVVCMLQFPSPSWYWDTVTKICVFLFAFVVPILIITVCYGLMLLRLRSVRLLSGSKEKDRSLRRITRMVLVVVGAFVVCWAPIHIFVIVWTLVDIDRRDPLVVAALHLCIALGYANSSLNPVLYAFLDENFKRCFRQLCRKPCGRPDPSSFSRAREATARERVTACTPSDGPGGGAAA

COC(=O)NCc1ccc2c(c1)CC[C@H](C(=O)N(C)[C@H](CN1CC[C@H](O)C1)c1ccccc1)O2 [Example 52, (2-{[2-({S}-3-Hydroxy-pyrrolidin-1-yl)-{S}-1-phenyl-ethyl]-(R)-methyl-carbamoyl}-chroman-6-ylmethyl)-carbamic acidmethyl ester]
Ki [1]: 1600 nM | % A (percent antagonism of formalin-induced flinching) [2]: 95%

Reference: patent US7034051B2, “Fused bicyclic carboxamide derivatives and methods of their use” (Adolor Corporation, priority 2003, dated 2006)
